# Values joined by “and” are separate entries in the source; they are usually repeats but may differ in a detail not shown here. Identical values can stand only once.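 Tested at 5 concentrations; 48 h exposure; 96-well plates; endpoints linearly interpolated, else capped at highest concentration. GI50 marks 50% less growth. At the TGI there is no net growth.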
# Legend:
# Assay in all cases: DTP human tumour cell line panel, 48 h
# BT-549 breast = test system: BT-549 breast
# SF-268 CNS = test system: SF-268 CNS
# SF-295 CNS = test system: SF-295 CNS
# MDA-MB-231 breast = test system: MDA-MB-231 breast
# RXF 393 renal = test system: RXF 393 renal
# TK-10 renal = test system: TK-10 renal
# SK-MEL-2 melanoma = test system: SK-MEL-2 melanoma
# RPMI-8226 leukemia = test system: RPMI-8226 leukemia
# HCT-15 colon = test system: HCT-15 colon
# A498 renal = test system: A498 renal
Compound,GI50 (BT-549 breast),TGI (BT-549 breast),GI50 (SF-268 CNS),TGI (SF-268 CNS),GI50 (SF-295 CNS),TGI (SF-295 CNS),GI50 (MDA-MB-231 breast),TGI (MDA-MB-231 breast),GI50 (RXF 393 renal),TGI (RXF 393 renal),GI50 (TK-10 renal),TGI (TK-10 renal),GI50 (SK-MEL-2 melanoma),TGI (SK-MEL-2 melanoma),GI50 (RPMI-8226 leukemia),TGI (RPMI-8226 leukemia),GI50 (HCT-15 colon),TGI (HCT-15 colon),GI50 (A498 renal),TGI (A498 renal)
COc1ccc(-n2c(=O)c3ccccc3n(Cc3ccc(C(=O)NO)cc3)c2=O)cc1,2.08 µM,4.91 µM,1.91 µM,4.25 µM,1.81 µM,3.54 µM,3.06 µM,8.63 µM,1.49 µM,3.34 µM,2.33 µM,12.9 µM,2.31 µM,7.13 µM,2.42 µM,12.6 µM,3.22 µM,16.2 µM,1.09 µM,3.25 µM
COc1ccccc1CNCCCN1C(=O)c2ccc3c4c(ccc(c24)C1=O)C(=O)N(CCCNCc1ccccc1OC)C3=O,0.348 µM,0.895 µM,0.257 µM,0.834 µM,0.213 µM,0.666 µM,0.227 µM,0.867 µM,0.142 µM,0.281 µM,0.17 µM,0.466 µM,0.203 µM,0.427 µM,0.274 µM,0.799 µM,0.191 µM,0.465 µM,1.21 µM,2.5 µM
COc1cc2c3c(n(CCCN)c(=O)c2cc1OC)-c1ccc(N)cc1C3=O,1.97 µM,8.85 µM,1.64 µM,31.6 µM,3.75 µM,37.3 µM,3.09 µM,21.2 µM,1.07 µM,7.22 µM,17.9 µM,80.6 µM,7.77 µM,29.8 µM,19.5 µM,49.8 µM,24.4 µM,> 100 µM,1.93 µM,9.78 µM
O=C1NC(=NCc2cccs2)O/C1=C\c1ccc2ncccc2c1,3.15 µM,13.3 µM,5.34 µM,18.1 µM,5.03 µM,15.9 µM,8.23 µM,> 25 µM,4.63 µM,13.9 µM,2.89 µM,9.61 µM,4.2 µM,9.82 µM,4.26 µM,17.3 µM,6.38 µM,> 25 µM,0.606 µM,4.81 µM
CN(C)c1ccc(/C=N/N=C(\C#N)[S][Sn]([Cl])([c]2ccccc2)[c]2ccccc2)cc1,1.57 µM,3.04 µM,1.51 µM,3.06 µM,2.29 µM,5.48 µM,1.54 µM,3.19 µM,1.38 µM,2.72 µM,1.46 µM,2.8 µM,1.74 µM,3.43 µM,1.43 µM,5.15 µM,1.26 µM,2.73 µM,1.96 µM,3.71 µM
N#CC1=C(N)Oc2c(ccc3ccccc23)C1c1cc2ccccc2n2nnnc12 (stereo not given),1.61 µM,> 100 µM,3.23 µM,> 100 µM,0.832 µM,> 100 µM,0.976 µM,> 100 µM,1.4 µM,6.59 µM,4.8 µM,> 100 µM,0.616 µM,6.84 µM,0.927 µM,> 100 µM,0.524 µM,> 100 µM,0.783 µM,> 100 µM
CN1CCN(C(=O)/C=C/c2ccc([N+](=O)[O-])o2)CC1,10.1 µM,21.8 µM,20.9 µM,84.1 µM,27.9 µM,> 100 µM,14.3 µM,34.7 µM,2.88 µM,12.4 µM,31.7 µM,> 100 µM,6.5 µM,29.6 µM,16 µM,64.5 µM,3.14 µM,14.9 µM,16.8 µM,34.3 µM
O=C1NC(c2ccccc2Cl)Nc2ccccc21 (stereo not given),–,> 100 µM,–,> 100 µM,–,> 72.3 µM,–,> 100 µM,–,63.1 µM,–,> 100 µM,–,48.7 µM,–,62.8 µM,–,> 100 µM,–,> 100 µM
CC(C)c1ccc2c(c1)CCC1C2CCCC1(C)NCc1ccccc1 (stereo not given),8.42 µM,20.8 µM,8.98 µM,26.1 µM,2.17 µM,6.17 µM,3.31 µM,12.4 µM,2.44 µM,4.66 µM,2.71 µM,7.19 µM,2.04 µM,4.16 µM,2.02 µM,4.98 µM,2.87 µM,9.05 µM,11.5 µM,24.5 µM
O=C1NC(=O)C2C3C=CC(C12)C1C2C(=O)NC(=O)C2C31 (stereo not given),313 µM,> 1000 µM,> 896 µM,> 1000 µM,827 µM,199 µM and > 1000 µM,> 801 µM,> 1000 µM,> 1000 µM,250 µM and > 1000 µM,695 µM,> 1000 µM,> 719 µM,244 µM and > 1000 µM,> 76.6 µM and 577 µM,203 µM and > 1000 µM,> 43.6 µM and 646 µM,> 61 µM and 250 µM and > 1000 µM,467 µM,250 µM and > 1000 µM
COc1cc2c(cc1OCCN1CCN(CCN3C(=O)c4cccc5cccc(c45)C3=O)CC1)N=C[C@@H]1CCCN1C2=O,19 µM,34.9 µM,15.8 µM,33 µM,22.9 µM,41.1 µM,19.9 µM,39.8 µM,14.2 µM,32.2 µM,19.9 µM,37.1 µM,24.6 µM,51.1 µM,17.1 µM,34.8 µM,15.8 µM,31.1 µM,20.5 µM,40.4 µM
CC1=C(C(=O)Nc2ccc3[nH]ncc3c2)C(c2ccc(F)cc2)N=C(c2ccc(C(F)(F)F)nc2)N1 (stereo not given),5.28 µM,18.2 µM,10.7 µM,> 25 µM,9.81 µM,> 25 µM,10.1 µM,> 25 µM,4.31 µM,> 23.5 µM,> 24.1 µM,> 25 µM,9.49 µM,> 25 µM,20 µM,> 25 µM,16.2 µM,> 25 µM,2.23 µM,9.32 µM
